Experimental data reported in patent US4180658A, “7[-2-Alkoxyamino(acetamido)]cephalosporin derivatives” (Bristol-Myers Company, priority 1978, dated 1979).
In brackets after ≈: the same amount, converted by molar mass. Where two headings read alike, the source gives them in different places.

Columns and labels:
[1] = test system: S. pneumoniae; experiment: Antibiotic Activity in Nutrient Broth (MIC); format: cell-based; settings: Streptococcus pneumoniae, 10^-3 dilution of overnight broth culture, 45% AAB + 5% serum + 50% broth
Experimental: (§1) Biological testing was performed according to the procedures described by F. Leitner et al., Antimicrobial Agents and Chemotherapy 10(3), 426-435 (September, 1976).
(§2) Antibiotic Activity in Nutrient Broth
(§3) *45% AAB + 5% serum + 50% broth listed above.
(§4) **Dilution of overnight broth culture.

[2] = test system: Str. pyogenes; experiment: Antibiotic Activity in Nutrient Broth (MIC); format: cell-based; settings: Streptococcus pyogenes, 10^-3 dilution, 45% AAB + 5% serum + 50% broth
Experimental: as §1, §2, §3, §4

[3] = test system: E. coli Juhl; experiment: Antibiotic Activity in Nutrient Broth (MIC); format: cell-based; settings: Escherichia coli, 10^-4 dilution
Experimental: as §1, §2, §4

[4] = test system: Ent. cloacae; experiment: Antibiotic Activity in Nutrient Broth (MIC); format: cell-based
Experimental: as §1, §2, §4

[5] = test system: K. pneumoniae; experiment: Antibiotic Activity in Nutrient Broth (MIC); format: cell-based; settings: 10^-4 dilution
Experimental: as §1, §2, §4

[6] = test system: Pr. mirabilis; experiment: Antibiotic Activity in Nutrient Broth (MIC); format: cell-based
Experimental: as §1, §2, §4

[7] = test system: Pr. morganii; experiment: Antibiotic Activity in Nutrient Broth (MIC); format: cell-based; settings: Morganella morganii, 10^-4 dilution
Experimental: as §1, §2, §4

[8] = test system: Pr. rettgeri; experiment: Antibiotic Activity in Nutrient Broth (MIC); format: cell-based; settings: Providencia rettgeri, Table 1, 10^-4 dilution
Experimental: as §1, §2, §4

[9] = test system: Pr. vulgaris; experiment: Antibiotic Activity in Nutrient Broth (MIC); format: cell-based; settings: Proteus vulgaris, Table 1, 10^-4 dilution
Experimental: as §1, §2, §4

[10] = test system: Ps. aeruginosa carb.; experiment: Antibiotic Activity in Nutrient Broth (MIC); format: cell-based; settings: Pseudomonas aeruginosa, Table 1, 10^-4 dilution
Experimental: as §1, §2, §4

[11] = test system: Ps. aeruginosa; experiment: Antibiotic Activity in Nutrient Broth (MIC); format: cell-based; settings: 10^-4 dilution
Experimental: as §1, §2, §4

[12] = test system: S. aureus BX1633; experiment: Antibiotic Activity in Nutrient Broth (MIC); format: cell-based; settings: Staphylococcus aureus
Experimental: as §1, §2, §4

[13] = test system: S. aureus Meth-Res; experiment: Antibiotic Activity in Nutrient Broth (MIC); format: cell-based; settings: Staphylococcus aureus, 10^-3 dilution
Experimental: as §1, §2, §4

[14] = test system: S. aureus Smith; experiment: Antibiotic Activity in Nutrient Broth (MIC); format: cell-based; settings: Staphylococcus aureus, 10^-4 dilution
Experimental: as §1, §2, §4

[15] = test system: Sal. enteritidis; experiment: Antibiotic Activity in Nutrient Broth (MIC); format: cell-based; settings: Salmonella enterica, Table 1, 10^-4 dilution
Experimental: as §1, §2, §4

[16] = test system: Ser. marcescens; experiment: Antibiotic Activity in Nutrient Broth (MIC); format: cell-based
Experimental: as §1, §2, §4

[17] = test system: Str. faecalis; experiment: Antibiotic Activity in Nutrient Broth (MIC); format: cell-based; settings: Enterococcus faecalis, Table 1, 10^-4 dilution
Experimental: as §1, §2, §4

[18] = test system: S. aureus; experiment: Antibiotic Activity in Nutrient Broth + 50% serum (MIC); format: cell-based; settings: Staphylococcus aureus, Table 1, 10^-4 dilution
Experimental: as §1, §2, §4

[19] = test system: Enterobacter species; experiment: Secondary in vitro Screening (MIC); format: cell-based; settings: Table 2
Experimental: as §1

[20] = test system: Haemophilus influenzae; experiment: Secondary in vitro Screening (MIC); format: cell-based; settings: Table 3, each line another isolate
Experimental: as §1

[21] = test system: Klebsiella pneumoniae; experiment: Secondary in vitro Screening (MIC); format: cell-based; settings: Table 2, each line another isolate
Experimental: as §1

[22] = test system: Pseudomonas aeruginosa; experiment: Secondary in vitro Screening (MIC); format: cell-based; settings: Table 2, each line another isolate
Experimental: as §1

[23] = Mouse Blood Levels; format: in vivo; settings: im, 40 mg/kg, IM 40 mgm./kg., phosphate buffer; for concentration at 0.25 h: 0.25 hours after administration; for concentration at 0.5 h: 0.5 hours after administration; for concentration at 1 h: 1 hour after administration; for concentration at 1.5 h: 1.5 hours after administration
Experimental: as §1
*Each group consisted of 6 animals and one blood sample was taken from
(§5) Compounds prepared in phosphate buffer and dosed IM at 40 mgm./kg.
Assay Organism: B. subtilis at pH 6.0

[24] = Solubility (dosing preparation in phosphate buffer); format: physicochemical; settings: compounds prepared in phosphate buffer for dosing
Excerpt: as §5

[25] = test system: Staphylococcus aureus; experiment: Secondary in vitro Screening (MIC); format: cell-based; settings: Table 2, each line another isolate
Experimental: as §1

[26] = Table 1, second pair of columns
[27] = Enterobacter cloacae, Table 1, 10^-4 dilution, read-out: MIC
[28] = Table 1, second pair of columns, 10^-4 dilution
[29] = Klebsiella pneumoniae, Table 1, first pair of columns, read-out: MIC
[30] = Proteus mirabilis, Table 1, 10^-4 dilution, read-out: MIC
[31] = Pseudomonas aeruginosa, Table 1, first pair of columns, read-out: MIC
[32] = BX1633, Table 1, 10^-2 dilution
[33] = BX1633, Table 1, 10^-3 dilution
[34] = BX1633, Table 1, second pair of columns, 10^-2 dilution
[35] = Serratia marcescens, Table 1, 10^-4 dilution, read-out: MIC
[36] = first pair of lines (Example 1B susp.)
[37] = second pair of lines (Example 1B sol.)

## CO/N=C(\C(=O)N[C@@H]1C(=O)N2C(C(=O)O)=C(CSc3nnnn3CCN)CS[C@H]12)c1ccco1 [Example 1B, 7-(α-Methoxyiminofurylacetamido)-3-(1-[2'-aminoethyl]-tetrazol-5-ylthiomethyl)-3-cephem-4-carboxylic Acid]
[1]; Table 1, first pair of columns
  MIC: 0.008 µg/mL
[1]; [26]
  MIC: 0.004 µg/mL
[2]; Table 1, first pair of columns
  MIC: 0.008 µg/mL
[2]; [26]
  MIC: 0.004 µg/mL
[3]; Table 1, first pair of columns
  MIC: 8 µg/mL (≈ 15.7 µM)
[3]; [26]
  MIC: 2 µg/mL (≈ 3.93 µM)
[4]; [27]
  MIC: 16 µg/mL (≈ 31.5 µM)
[4]; [28]
  MIC: 8 µg/mL (≈ 15.7 µM)
[5]; [29]
  MIC: 1 µg/mL (≈ 1.97 µM)
[5]; Klebsiella pneumoniae, Table 1, second pair of columns, read-out: MIC
  MIC: 16 µg/mL (≈ 31.5 µM)
[5]; Table 1, first pair of columns
  MIC: 2 µg/mL (≈ 3.93 µM)
[5]; [26]
  MIC: 32 µg/mL (≈ 62.9 µM)
[6]; [30]
  MIC: 0.5 µg/mL (≈ 0.983 µM)
[6]; [28]
  MIC: 0.5 µg/mL (≈ 0.983 µM)
[7]; Table 1, first pair of columns
  MIC: 2 µg/mL (≈ 3.93 µM)
[7]; [26]
  MIC: 1 µg/mL (≈ 1.97 µM)
[8]
  MIC: 1 µg/mL (≈ 1.97 µM)
[9]
  MIC: 0.5 µg/mL (≈ 0.983 µM)
[10]
  MIC: 250 µg/mL (≈ 492 µM)
[11]; [31]
  MIC: 125 µg/mL (≈ 246 µM)
[11]; Pseudomonas aeruginosa, Table 1, second pair of columns, read-out: MIC
  MIC: 63 µg/mL (≈ 124 µM)
[11]; [26]
  MIC: 125 µg/mL (≈ 246 µM)
[12]; [32]
  MIC: 1 µg/mL (≈ 1.97 µM)
[12]; [33]
  MIC: 0.5 µg/mL (≈ 0.983 µM)
[12]; [34]
  MIC: 0.5 µg/mL (≈ 0.983 µM)
[13]; Table 1, first pair of columns
  MIC: 2 µg/mL (≈ 3.93 µM)
[13]; [26]
  MIC: > 125 µg/mL
[14]; Table 1, first pair of columns
  MIC: 0.5 µg/mL (≈ 0.983 µM)
[14]; [26]
  MIC: 0.5 µg/mL (≈ 0.983 µM)
[15]
  MIC: ≤ 0.25 µg/mL
[16]; [35]
  MIC: 8 µg/mL (≈ 15.7 µM)
[16]; [28]
  MIC: 8 µg/mL (≈ 15.7 µM)
[17]
  MIC: 63 µg/mL (≈ 124 µM)
[18]
  MIC: 1 µg/mL
[19]
  MIC: 2 µg/mL (≈ 3.93 µM)
[20]
  MIC: 0.5 µg/mL (≈ 0.983 µM)
[21]
  MIC: 2 µg/mL (≈ 3.93 µM)
[22]
  MIC: > 63 µg/mL
[23]; [36]
  concentration at 0.25 h: 35000 ng/mL
  concentration at 0.5 h: 17900 ng/mL
  concentration at 1 h: 5400 ng/mL
  concentration at 1.5 h: < 2500 ng/mL
[23]; [37]
  concentration at 0.25 h: 33600 ng/mL
  concentration at 0.5 h: 17400 ng/mL
  concentration at 1 h: 3900 ng/mL
  concentration at 1.5 h: < 2600 ng/mL
[24]
  Solubility: susp. and sol.

## CO/N=C(\C(=O)N[C@@H]1C(=O)N2C(C(=O)O)=C(COC(N)=O)CS[C@H]12)c1ccco1 [Cefuroxime, sodium 6R,7R3-carbamoyloxymethyl-7-(2Z)-2-methoxyimino(fur-2-yl)acetamidoceph-3-m-4-carboxylate, reference compound]
[1]; Table 1, first pair of columns
  MIC: 0.004 µg/mL
[1]; [26]
  MIC: 0.004 µg/mL
[2]; Table 1, first pair of columns
  MIC: 0.004 µg/mL
[2]; [26]
  MIC: 0.004 µg/mL
[3]; Table 1, first pair of columns
  MIC: 4 µg/mL
[3]; [26]
  MIC: 8 µg/mL
[4]; [27]
  MIC: > 125 µg/mL
[5]; [29]
  MIC: 2 µg/mL
[6]; [30]
  MIC: 0.5 µg/mL
[6]; [28]
  MIC: 0.5 µg/mL
[7]; Table 1, first pair of columns
  MIC: 32 µg/mL
[7]; [26]
  MIC: 63 µg/mL
[8]
  MIC: 16 µg/mL
[9]
  MIC: 1 µg/mL
[10]
  MIC: > 1000 µg/mL
[11]; [31]
  MIC: > 125 µg/mL
[12]; [32]
  MIC: 0.5 µg/mL
[12]; [33]
  MIC: 0.5 µg/mL
[12]; [34]
  MIC: 2 µg/mL
[13]; Table 1, first pair of columns
  MIC: 2 µg/mL
[13]; [26]
  MIC: > 125 µg/mL
[14]; Table 1, first pair of columns
  MIC: 0.13 µg/mL
[14]; [26]
  MIC: 0.5 µg/mL
[15]
  MIC: 0.5 µg/mL
[16]; [35]
  MIC: > 125 µg/mL
[16]; [28]
  MIC: > 125 µg/mL
[17]
  MIC: > 125 µg/mL
[19]
  MIC: 2 µg/mL
[21]
  MIC: 2 µg/mL
[22]
  MIC: 125 µg/mL
[25]
  MIC: 0.5 µg/mL
[23]; [36]
  concentration at 0.25 h: 34500 ng/mL
  concentration at 0.5 h: 26300 ng/mL
  concentration at 1 h: 7600 ng/mL
  concentration at 1.5 h: 3100 ng/mL
[23]; [37]
  concentration at 0.25 h: 25600 ng/mL
  concentration at 0.5 h: 20600 ng/mL
  concentration at 1 h: 6000 ng/mL
  concentration at 1.5 h: 2100 ng/mL
[24]
  Solubility: sol.
